Experimental data taken from US20240336638A1, “IMIDAZOLE COMPOUND, AND INTERMEDIATE AND APPLICATION THEREOF” (priority 2021, published 2024).
Read-outs that look alike come from different tables or passages of the source.

Key:
[1] = test system: AA-induced platelet aggregation; assay: Inhibitory effect on AA-induced platelet aggregation in rats in vitro (washed platelets); format: cell-based, rat; settings: 1*10^−4 M
Procedure: Several experimental groups were established, including a blank control group, an AA (arachidonic acid) model control group, and various test compounds. Each test compound had three concentration groups: 10^−3 M, 10^−4 M, and 10^−5 M. The data from the blank and model control group were shared among the different drug concentration groups as a control.
Male SD rats were anesthetized with 3% chloral hydrate (300 mg/kg) through intraperitoneal injection. After being fixed in a supine position, the skin of the neck was cut about 3 cm, bluntly separated with a hemostat, and the trachea was exposed after the common carotid artery was separated. The distal end of the common carotid artery was ligated with a fine thread, and the proximal end was clamped with an arterial clamp for vascular intubation. After the intubation was fixed, the artery clamp was opened, and the blood was placed into a blood collection tube containing 3.8% trisodium citrate so that the blood was mixed well with the 3.8% trisodium citrate in a volume ratio of 9:1.
The prepared anticoagulant blood was mixed well and centrifuged for 10 minutes at 500 rpm, then the upper layer of plasma was aspirated to obtain platelet-rich plasma (PRP), and the PRP was centrifuged again for 5 minutes at 3,000 rpm. The supernatant was discarded, and the platelet precipitate was obtained, which was washed once with Ca^2+-free HEPES-Tyrode's buffer, then centrifuged at 3,000 rpm for 5 minutes. The supernatant was discarded, and the platelets were resuspended with Ca^2+-free HEPES-Tyrode's buffer to obtain the washed platelets.
First, 300 μL of Ca^2+-containing HEPES-Tyrode's solution was taken into the test cup, put into the test wells, and calibrated by pressing the “PPP” key. Subsequently, 240 μL of the washed platelets were added to the test cup, then added with 30 μL of different concentrations of drug solution, incubated for 10 minutes at 37° C. in a preheated bath, and then put into the test wells. 3 μL of 100× CaCl2 solution (final concentration of 0.2 g/L) and 30 μL of inducer (final concentration of AA of 800 μM) were added to the test wells, and then the “Start” key was pressed immediately. The maximum aggregation rate was recorded every 60 s. The measurement was repeated three times for each concentration for 10 minutes, and the aggregation curve was plotted.
The platelet aggregation inhibition rate was calculated with the following formula:
Inhibition rate (%)=(maximum aggregation rate in the model control group−maximum aggregation rate in the administration group)/maximum aggregation rate in the model control group×100%
All data were expressed as mean±standard deviation (mean±SD). SPSS 22.0 software was used for statistical analysis of the data. Intergroup data were analyzed using one-way ANOVA, with P<0.05 considered as statistically significant and P<0.01 considered as highly significant.

[2] = Pharmacokinetics in SD rats after single IV and PO administration, plasma; format: in vivo; settings: for Vd / AUC(0-inf) / AUC(0-t) / C0 / Cmax / Tmax / half-life / MRT last / MRT inf / bioavailability: Sprague-Dawley (SD), rat plasma; for Vd: rat, plasma, iv, 1 mg/kg; for MRT last: read-out: MRT(0−t); for MRT inf: read-out: MRT(0−∞); for bioavailability: PO 6 mg/kg vs IV 1 mg/kg
Procedure: The experimental method of administration by gavage injection in rats: SD rats weighing 180 to 220 g were fasted for 12 hours prior to the experiment, with free access to water. After administration, food and water were withheld for 4 hours. After this 4-hour period, the rats were allowed free access to water, and food was provided after 8 hours. The drugs were administered at a set dose. N=3, blood samples were taken before administration, and 5 minutes, 0.25 hours, 0.5 hours, 0.75 hours, 1 hour, 2 hours, 4 hours, 8 hours, and 24 hours after administration, respectively, and placed into sodium heparin anticoagulant tubes. The tubes were centrifuged for 1 hour at 4° C. and at 8000 rpm for 5 minutes, and the plasma was then separated and stored in centrifuge tubes at −70° C. for analysis. The experimental method of intravenous administration to rats: SD rats weighing 180 to 220 g were fasted for 12 hours prior to the experiment, with free access to water. After administration, food and water were withheld for 4 hours. After this 4-hour period, the rats were allowed free access to water, and food was provided after 8 hours. The drugs were administered at a set dose. N=3, blood samples were taken before administration, and 5 minutes, 0.25 hours, 0.5 hours, 0.75 hours, 1 hour, 2 hours, 4 hours, 8 hours, and 24 hours after administration, respectively, and placed into sodium heparin anticoagulant tubes. The tubes were centrifuged for 1 hour at 4° C. and at 8000 rpm for 5 minutes, and the plasma was then separated and stored in centrifuge tubes at −70° C. for analysis. The plasma concentration-time data were processed using the Phoenix® WinNonlin® 8.0 program to calculate pharmacokinetic parameters. Among them, Cmax and Tmax are measured values, the elimination rate constant k of the tail section of the C-t curve is obtained from the linear regression of LnC-t, and the value of AUC0-4 is calculated by the trapezoidal area method, and the area under the curve from 0 to ∞ time is AUC=AUC0-4+Ct/k. [table]

Compound | significant inhibition of AA-induced platelet aggregation [1] | Vd ([2]; IV 1 mg/kg, read-out: Vss) | Vd ([2]; IV 1 mg/kg, read-out: Vz) | AUC(0-inf) ([2]; IV 1 mg/kg) | AUC(0-t) ([2]; IV 1 mg/kg) | C0 ([2]; IV 1 mg/kg) | Cmax ([2]; IV 1 mg/kg) | Tmax ([2]; IV 1 mg/kg) | half-life ([2]; IV 1 mg/kg) | MRT last ([2]; IV 1 mg/kg) | MRT inf ([2]; IV 1 mg/kg) | AUC(0-inf) ([2]; PO 6 mg/kg) | AUC(0-t) ([2]; PO 6 mg/kg) | Cmax ([2]; PO 6 mg/kg) | Tmax ([2]; PO 6 mg/kg) | half-life ([2]; PO 6 mg/kg) | bioavailability [2] | MRT last ([2]; PO 6 mg/kg) | MRT inf ([2]; PO 6 mg/kg) | T1/2 and AUC(0-∞) in the whole body blood circulation system as compared to that of Ozagrel ([2]; intravenously at 1 mg/kg) | also measured
O=C(O)[C@@H]1C[C@H]1c1ccc(Cn2cnc(Cl)c2)c(Cl)c1 [Compound 11, (1R,2R)-2-(3-Chloro-4-((4-chloro-1H-imidazol-1-yl)methyl)phenyl)cyclopropane-1-carboxylic acid] | can significantly inhibit | 0.22 L/kg | 0.22 L/kg | 228 µg·h/mL | 86.4 µg·h/mL | 5150 ng/mL | 5140 ng/mL | 0.083 h | 34.8 h | 10.5 h | 50.1 h | 1700 µg·h/mL | 587 µg·h/mL | 32400 ng/mL | 4 h | 37 h | 113% | 11 h | 54.4 h | significantly increased | T1/2 and AUC(0-∞) in the whole body blood circulation system as compared to that of Ozagrel ([2]; orally at 6 mg/kg): significantly increased
O=C(O)[C@@H]1C[C@H]1c1ccc(Cn2ccnc2)c(F)c1 [Compound 15, (1R,2R)-2-(4-((1H-Imidazol-1-yl)methyl)-3-fluorophenyl)cyclopropane-1-carboxylic acid] | can significantly inhibit | 0.34 L/kg | 0.38 L/kg | 3.44 µg·h/mL | 3.43 µg·h/mL | 3710 ng/mL | 3160 ng/mL | 0.083 h | 0.91 h | 1.14 h | 1.16 h | 80.7 µg·h/mL | 78.4 µg·h/mL | 18600 ng/mL | 1 h | 1.51 h | 381% | 2.57 h | 2.79 h | significantly increased | T1/2 and AUC(0-∞) in the whole body blood circulation system as compared to that of Ozagrel ([2]; orally at 6 mg/kg): significantly increased
O=C(O)[C@@H]1C[C@H]1c1ccc(Cn2cnc(F)c2)cc1F [Compound 17, (1R,2R)-2-(2-Fluoro-4-((4-fluoro-1H-imidazol-1-yl)methyl)phenyl)cyclopropane-1-carboxylic acid] | can significantly inhibit | 0.22 L/kg | 0.27 L/kg | 17.6 µg·h/mL | 17.5 µg·h/mL | 7320 ng/mL | 6840 ng/mL | 0.083 h | 3.24 h | 3.8 h | 3.91 h | 179 µg·h/mL | 178 µg·h/mL | 27200 ng/mL | 2 h | 2.96 h | 169% | 4.16 h | 4.25 h | significantly increased | T1/2 and AUC(0-∞) in the whole body blood circulation system as compared to that of Ozagrel ([2]; orally at 6 mg/kg): significantly increased
O=C(O)[C@@H]1C[C@H]1c1ccc(Cn2cnc(F)c2)c(Cl)c1 [Compound 18, (1R,2R)-2-(3-Chloro-4-((4-fluoro-1H-imidazol-1-yl)methyl)phenyl)cyclopropane-1-carboxylic acid] | can significantly inhibit | 0.2 L/kg | 0.21 L/kg | 70.7 µg·h/mL | 55.9 µg·h/mL | 6590 ng/mL | 6340 ng/mL | 0.083 h | 10.4 h | 7.73 h | 14.3 h | 757 µg·h/mL | 576 µg·h/mL | 41400 ng/mL | 1 h | 11.6 h | 172% | 8.39 h | 16.1 h | significantly increased | T1/2 and AUC(0-∞) in the whole body blood circulation system as compared to that of Ozagrel ([2]; orally at 6 mg/kg): significantly increased
O=C(O)[C@@H]1C[C@H]1c1ccc(Cn2ccnc2)cc1 [Compound 19, (1R,2R)-2-(4-((1H-Imidazol-1-yl)methyl)phenyl)cyclopropane-1-carboxylic acid] | can significantly inhibit | 0.16 L/kg | 0.2 L/kg | 3.25 µg·h/mL | 3.25 µg·h/mL | 6870 ng/mL | 5490 ng/mL | 0.083 h | 0.44 h | 0.5 h | 0.51 h | 36.6 µg·h/mL | 36.6 µg·h/mL | 27300 ng/mL | 0.25 h | 0.72 h | 188% | 1.19 h | 1.2 h | – | –
O=C(O)/C=C/c1ccc(Cn2ccnc2)cc1 [Ozagrel, reference compound] | – | 0.25 L/kg | 0.74 L/kg | 0.51 µg·h/mL | 0.51 µg·h/mL | 3670 ng/mL | 1840 ng/mL | 0.083 h | 0.26 h | 0.12 h | 0.13 h | 2.68 µg·h/mL | 2.68 µg·h/mL | 3780 ng/mL | 0.25 h | 0.73 h | 87.5% | 0.62 h | 0.63 h | – | –
